From paper PMC5833010 (ACS Central Science, 2018)

Experiments:
AtD14-GFP fusion protein = target: T1, AtD14-GFP fusion protein (Arabidopsis thaliana, UniProt Q9SQR3); assay: AtD14-GFP degradation in 35S::AtD14-GFP/atd14-1 seedlings; type: in vivo; details: 1 μM (+)-GR24 alone, 24 h
T1 sequence (Q9SQR3 1-267): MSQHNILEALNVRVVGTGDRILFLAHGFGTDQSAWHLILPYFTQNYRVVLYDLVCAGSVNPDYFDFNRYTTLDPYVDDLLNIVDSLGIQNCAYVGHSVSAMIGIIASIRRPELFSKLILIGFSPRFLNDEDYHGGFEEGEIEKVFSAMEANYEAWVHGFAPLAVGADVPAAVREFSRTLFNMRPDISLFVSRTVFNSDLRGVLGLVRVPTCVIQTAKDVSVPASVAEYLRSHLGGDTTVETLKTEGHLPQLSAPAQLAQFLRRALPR

STH7 = assay: qRT-PCR of strigolactone-responsive gene STH7 in seedlings; type: in vivo, Arabidopsis; details: 10-day-old seedlings, 1 μM (+)-GR24 alone, 24 h
BRC1 = assay: qRT-PCR of strigolactone-responsive gene BRC1 in seedlings; type: in vivo, Arabidopsis; details: 10-day-old seedlings, 1 μM (+)-GR24 alone, 24 h

GFP signal in hypocotyl (AtD14-GFP) (AtD14-GFP fusion protein): striking reduction
Substance: (+)-GR24
expression of STH7 (STH7): increased
expression of BRC1 (BRC1): increased
